Reference: ChEMBL document CHEMBL2028040, “Malaria Box”

Legend:
[1] = test system: Trypanosoma brucei rhodesiense; assay: MMV: Inhibition of Trypanosoma brucei rhodesiense (STIB 900) (HAT in vitro).; format: functional, organism-based
[2] = test system: Trypanosoma brucei brucei; assay: MMV: Inhibition of Trypanosoma brucei brucei (Squib 427) (HAT in vitro).; format: functional, organism-based
Leishmania infantum = assay: MMV: Inhibition of Leishmania infantum (MHOM/MA/BE/67) in vitro.; format: functional, organism-based
Trypanosoma cruzi = assay: MMV: Inhibition of Trypanosoma cruzi (Tulahuen C4 LacZ) (Chagas in vitro).; format: functional, organism-based
Plasmodium falciparum [3] = assay: MMV: Inhibition of Plasmodium falciparum 3D7 (EC50).; format: functional, organism-based
Plasmodium falciparum [4] = assay: MMV: Inhibition of Plasmodium falciparum K1 (EC50).; format: functional, organism-based
[5] = MMV: Cytotoxicity against human fibroblasts (MRC-5) cells.; settings: MRC-5 cells (human fibroblasts)
Plasmodium falciparum [6] = assay: MMV: Inhibition of Plasmodium falciparum 3D7 at 5uM compound concentration.; format: functional

SMILES | IC50 [1] | IC50 [2] | IC50 (Leishmania infantum) | IC50 (Trypanosoma cruzi) | EC50 (Plasmodium falciparum [3]) | EC50 (Plasmodium falciparum [4]) | IC50 [5] | inhibition at 5 µM (Plasmodium falciparum [6])
O=C(Nc1ccc(Cl)c(Cl)c1)Nc1ccc(Cl)c(Cl)c1 | 2.17 µM | 2.5 µM | 10.6 µM | 3.82 µM | 1.16 µM | 1.26 µM | > 32 µM | 96%
Cc1ccc(-c2cc3c(nn2)-c2ccccc2C3=O)cc1 | 15 µM | > 32 µM | > 32 µM | > 32 µM | 0.0944 µM | 0.165 µM | > 32 µM | 99%
O=C1c2ccccc2-c2nnc(-c3ccc(Br)cc3)cc21 | > 32 µM | > 32 µM | > 32 µM | > 32 µM | 1.07 µM | 0.798 µM | > 32 µM | 99%
N=c1n(CCN2CCCCC2)c2ccccc2n1CC(O)c1cccc(Br)c1 (stereo not drawn) | 1.01 µM | 2.77 µM | 4 µM | 4.17 µM | 0.893 µM | 1.4 µM | 27.6 µM | 98%
CCOC(=O)C1=C(C)N=c2sc(=Cc3cc(Cl)ccc3O)c(=O)n2C1c1ccc(OC)cc1 (stereo not drawn) | 4.15 µM | 14.2 µM | 16.2 µM | 14.1 µM | 0.489 µM | 0.49 µM | 16.6 µM | 97%
COc1ccc(-c2nc(NC(=O)CS(=O)(=O)c3ccc(F)cc3)sc2C)cc1 | 16.1 µM | 16 µM | > 32 µM | 16.8 µM | 0.448 µM | 1.28 µM | > 32 µM | 97%
COc1cccc(NC(=O)[C@H](C(C)C)n2c(=O)[nH]c3ccccc3c2=O)c1 | 1.05 µM | 4.32 µM | 5.66 µM | 9.22 µM | 0.139 µM | 0.203 µM | > 32 µM | 99%
CCOC(=O)c1cn(CC)c2cc(N(C)CCc3ccc(OC)c(OC)c3)c(F)cc2c1=O | > 32 µM | > 32 µM | > 32 µM | > 32 µM | 0.205 µM | 0.436 µM | > 32 µM | 99%
CCC(c1ccccc1)c1nn2c(-c3cccs3)nnc2s1 (stereo not drawn) | 13.1 µM | 16.1 µM | 12 µM | 4.09 µM | 0.259 µM | 0.916 µM | > 32 µM | 99%
O=C(CCl)NCCOc1ccc(Cl)cc1Cl | 6.83 µM | 11.6 µM | 10.2 µM | 19.1 µM | 0.555 µM | 1 µM | 16.2 µM | 94%
CCCCNc1nc(NC(C)(C)C)nc(NC(C)(C)C)n1 | 2 µM | 1.33 µM | 2.97 µM | 9.19 µM | 0.706 µM | 0.705 µM | > 32 µM | 98%
CCOC(=O)c1c(NC(=O)c2ccccc2)sc2c(O)c(CN(CC)CC)ccc12 | > 32 µM | > 32 µM | 16.2 µM | > 32 µM | 0.205 µM | 0.114 µM | > 32 µM | 96%
Cc1cc(Nc2ccc(C)c(Cl)c2)n2nc(C(F)(F)F)nc2n1 | 15.9 µM | > 32 µM | > 32 µM | 22.9 µM | 0.00671 µM | 0.0141 µM | > 32 µM | 98%
Nc1ccc(-c2nc3cc(Cc4ccc5[nH]c(-c6ccc(N)cc6)nc5c4)ccc3[nH]2)cc1 | 2.27 µM | 1.89 µM | > 32 µM | 4.54 µM | 1.42 µM | 1.29 µM | 11.4 µM | 100%
CC(=O)c1sc(NC(=O)Nc2ccc(C)cc2C)nc1C | > 32 µM | > 32 µM | > 32 µM | > 32 µM | 0.536 µM | 0.502 µM | > 32 µM | 64%
Cn1c(=O)n(C)c2cc(CNCCNc3ccnc4cc(Cl)ccc34)ccc21 | 0.419 µM | 11.5 µM | 17.3 µM | 16.9 µM | 0.545 µM | 1.51 µM | > 32 µM | 90%
COc1ccccc1CNC(=O)CCn1c(=O)[nH]c2ccccc2c1=O | > 32 µM | > 32 µM | > 32 µM | > 32 µM | 0.0726 µM | 0.19 µM | > 32 µM | 64%
CCCCNCC(O)(c1ccc(Cl)cc1)c1ccc(Cl)cc1 | 3.86 µM | 3.27 µM | 13.6 µM | 14.3 µM | 0.843 µM | 0.525 µM | > 32 µM | 97%
CCCc1cc(O)c2c3c(c(=O)oc2c1)CN(C)CC3 | > 32 µM | > 32 µM | > 32 µM | > 32 µM | 0.146 µM | 0.0807 µM | > 32 µM | 97%
OC(CNC1CCCCC1)Cn1c2ccc(I)cc2c2cc(I)ccc21 (stereo not drawn) | 0.784 µM | 0.877 µM | 1.59 µM | 0.902 µM | 0.466 µM | 0.298 µM | 4.03 µM | 97%
COc1cccc(C(=O)NC(c2ccc(C)cc2)c2cc(Cl)c3cccnc3c2O)c1 (stereo not drawn) | 4.06 µM | 3.49 µM | > 32 µM | 3.77 µM | 0.393 µM | 0.527 µM | > 32 µM | 97%
CCOc1ccc(/C=C/c2nc(=O)c3ccccc3o2)cc1 | 30.5 µM | > 32 µM | > 32 µM | 17.9 µM | 0.56 µM | 0.893 µM | > 32 µM | 95%
O=C(Nc1ccc(F)c(Cl)c1)Nc1ccc(Cl)c(Cl)c1 | 3.33 µM | 3.94 µM | 16.2 µM | 3.7 µM | 2.06 µM | 2.13 µM | 4.51 µM | 95%
COc1ccc(CN2CCN(Cc3ccccc3)CC2)c(O)c1 | > 32 µM | > 32 µM | > 32 µM | > 32 µM | 1.08 µM | 0.789 µM | > 32 µM | 96%
CCCCCCc1cc(O)c2c3c(c(=O)oc2c1)CCC(C)C3 (stereo not drawn) | 4.21 µM | 4.18 µM | > 32 µM | > 32 µM | 0.534 µM | 0.467 µM | > 32 µM | 96%
c1ccc(Cn2c(N=Nc3c(Nc4ccccc4)ccc4ccccc34)nc3ccccc32)cc1 | 0.217 µM | 0.88 µM | 3.01 µM | 0.136 µM | 0.0368 µM | 0.048 µM | 0.389 µM | 96%
